The values that follow are results of earlier work, collected in publication PMC9207678 (Journal of Mass Spectrometry and Advances in the Clinical …, 2022).

For the data set the following is noted: ratio to insulin, ref [2], [3].

With C-peptide, the “half-life in circulation relative to insulin” value is recorded as 6–10 times.
